The text below walks through data of PubChem BioAssay (NCI).

Some test systems named below: COLO 205 colon; NCI/ADR-RES ovarian; RXF 393 renal; UO-31 renal; EKVX NSCLC; U251 CNS; CCRF-CEM leukemia; SK-MEL-5 melanoma; TK-10 renal; HL-60(TB) leukemia.
Holding throughout (assay): NCI tumour cell line growth inhibition, 48 h

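Results reflect a 48-hour exposure of cells in 96-well plates to compound at five concentrations. Here, GI50 denotes the concentration required for 50% inhibition of growth. TGI denotes the concentration required for complete inhibition of growth.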 Where a SMILES comes first, the peptide text is derived from it. The star is where a group is joined. Boc = CC(C)(C)OC(=O)*

Take `C1=CC2=CC=CC3c4nc5ccc6ccccc6c5nc4C(=C1)C23` (configuration not stated): the TGI with COLO 205 colon, in the assay on NCI/ADR-RES ovarian, with RXF 393 renal, in the assay with UO-31 renal, with EKVX NSCLC and in the assay with U251 CNS was above 100 µM in each case. The TGI in the assay with CCRF-CEM leukemia, in the assay with SK-MEL-5 melanoma, in the assay on TK-10 renal and in the assay on HL-60(TB) leukemia was above 100 µM in each case.
For `COc1ccc(CC(O)CN2CCOCC2)cc1` (configuration not stated), the TGI with NCI/ADR-RES ovarian, in the assay with RXF 393 renal, in the assay on UO-31 renal, in the assay on EKVX NSCLC, with U251 CNS and in the assay with CCRF-CEM leukemia was above 100 µM throughout. Besides, the TGI in the assay on SK-MEL-5 melanoma, with TK-10 renal and in the assay on HL-60(TB) leukemia was above 100 µM throughout.
Consider `COc1ccc2nc3cc(Cl)ccc3c(NCCCNCCCNc3c4ccc(Cl)cc4nc4ccc(OC)cc34)c2c1`, for which the TGI with COLO 205 colon was 0.158 µM; in the assay with NCI/ADR-RES ovarian, above 22.8 µM; with RXF 393 renal it was 0.453 µM; in the assay on UO-31 renal it was 0.989 µM; in the assay on EKVX NSCLC, 0.89 µM; with U251 CNS, 0.13 µM. Also, the TGI came to 14.8 µM in the assay on CCRF-CEM leukemia, 0.588 µM in the assay on TK-10 renal and 23.2 µM with HL-60(TB) leukemia.
Turning to `O=C(CCCN1CCC2(CC1)CC(=O)N(N1CCOCC1)C2=O)c1ccccc1`, the TGI in the assay on COLO 205 colon, in the assay with NCI/ADR-RES ovarian, with RXF 393 renal, in the assay with UO-31 renal, in the assay on EKVX NSCLC and with U251 CNS was above 100 µM each time. For the same compound, the TGI in the assay on CCRF-CEM leukemia, in the assay on SK-MEL-5 melanoma, in the assay with TK-10 renal and in the assay with HL-60(TB) leukemia was above 100 µM each time.
In the case of `CCCn1c(CN(Cc2nc3ccccc3n2CCC)Cc2nc3ccccc3n2CCC)nc2ccccc21`, the TGI in the assay with COLO 205 colon was 13 µM; in the assay on NCI/ADR-RES ovarian it was above 100 µM; in the assay on RXF 393 renal, 8.96 µM; in the assay on UO-31 renal, 34.3 µM; in the assay on EKVX NSCLC, 40.4 µM; in the assay with U251 CNS it was above 100 µM. In addition, the TGI in the assay with CCRF-CEM leukemia was 21.7 µM; in the assay on SK-MEL-5 melanoma, 18.1 µM; with TK-10 renal, above 100 µM; with HL-60(TB) leukemia it was 4.46 µM.
Consider `CC(C)(C)OC(=O)NCC(=O)NCC(=O)NCC(=O)NCC(=O)O` (Boc-GGGG-OH), for which the TGI in the assay on COLO 205 colon, in the assay on NCI/ADR-RES ovarian, in the assay on RXF 393 renal, in the assay on UO-31 renal, with EKVX NSCLC and with U251 CNS was above 100 µM in each case. Further, the TGI in the assay with CCRF-CEM leukemia, in the assay with SK-MEL-5 melanoma, in the assay on TK-10 renal and in the assay on HL-60(TB) leukemia was above 100 µM in each case.
As for `O=P(c1ccccc1)(c1ccccc1)N1O[C@@H](c2ccccc2)C=C[C@H]1c1ccccc1`, the TGI with COLO 205 colon came to 31.2 µM; with NCI/ADR-RES ovarian, 24 µM; in the assay on RXF 393 renal, 22.9 µM; with UO-31 renal it was 17.3 µM; in the assay on EKVX NSCLC it was 24.1 µM; in the assay on U251 CNS, 16.9 µM. Also, the TGI was determined as 53.5 µM in the assay on CCRF-CEM leukemia, 24.6 µM in the assay on SK-MEL-5 melanoma, 27.8 µM in the assay on TK-10 renal and 28.4 µM in the assay with HL-60(TB) leukemia.
For the compound `CC1(C)N=C(C(N)=O)c2ncn(CCCO)c2N1`, the TGI in the assay with COLO 205 colon, with NCI/ADR-RES ovarian, in the assay with RXF 393 renal, in the assay with EKVX NSCLC, in the assay on U251 CNS and in the assay with CCRF-CEM leukemia was above 100 µM throughout. Moreover, the TGI in the assay on SK-MEL-5 melanoma, in the assay with TK-10 renal and with HL-60(TB) leukemia was above 100 µM each time.
Consider `C=C[C@@H]1C(CO)=CCC2[C@H]1CCC1C(C)(C)C(=O)CC[C@]21C` (some centres not stated), for which the TGI with COLO 205 colon, with NCI/ADR-RES ovarian, in the assay on RXF 393 renal, in the assay with UO-31 renal, with EKVX NSCLC and in the assay on U251 CNS was above 100 µM each time. Besides, the TGI in the assay with CCRF-CEM leukemia, with SK-MEL-5 melanoma, in the assay with TK-10 renal and in the assay on HL-60(TB) leukemia was above 100 µM each time.
Take `O=c1cc(N=P(c2ccccc2)(c2ccccc2)c2ccccc2)n(-c2ccccc2)c(=O)n1-c1ccccc1`: the TGI was above 100 µM in the assay on NCI/ADR-RES ovarian; 15.1 µM with RXF 393 renal; 34.6 µM in the assay with UO-31 renal; 49.8 µM in the assay on EKVX NSCLC; 29.2 µM with U251 CNS; 82.5 µM in the assay with CCRF-CEM leukemia. The TGI is 24.1 µM in the assay on SK-MEL-5 melanoma, above 100 µM in the assay with TK-10 renal and 44.6 µM in the assay with HL-60(TB) leukemia.
Take `CCOC(=O)c1c(-c2ccc(OC)cc2)c(C#N)c(=S)n(C2OC(COC(C)=O)C(OC(C)=O)C(OC(C)=O)C2OC(C)=O)c1C` (configuration not stated): the TGI with COLO 205 colon was above 100 µM; with NCI/ADR-RES ovarian, above 100 µM; in the assay on RXF 393 renal it was above 100 µM; in the assay on UO-31 renal it was 6.02 µM; in the assay on EKVX NSCLC, above 100 µM; in the assay with U251 CNS it was above 100 µM. The TGI with CCRF-CEM leukemia, in the assay on SK-MEL-5 melanoma, with TK-10 renal and in the assay with HL-60(TB) leukemia was above 100 µM each time.
`CN(C)CCCN1C(=S)N(CCCN(C)C)c2c3cc(O)ccc3nc3c([N+](=O)[O-])ccc1c23`: the TGI with COLO 205 colon was determined as 15.9 µM; in the assay on NCI/ADR-RES ovarian, 22.4 µM; in the assay on RXF 393 renal, 15.1 µM; in the assay with UO-31 renal, 18.7 µM; with EKVX NSCLC, 16.2 µM; in the assay with U251 CNS, 28 µM. Besides, the TGI was found to be 19 µM in the assay on CCRF-CEM leukemia, 12.1 µM with SK-MEL-5 melanoma, 29 µM with TK-10 renal and 22.1 µM with HL-60(TB) leukemia.
Regarding `COc1cc(NS(C)(=O)=O)ccc1N1Cc2cnc3ccc4[nH]c(C)cc1c4c23`, the TGI in the assay with COLO 205 colon, in the assay on NCI/ADR-RES ovarian, in the assay with RXF 393 renal, with UO-31 renal, in the assay with EKVX NSCLC and in the assay with U251 CNS was above 100 µM throughout. Further, the TGI in the assay with CCRF-CEM leukemia, with SK-MEL-5 melanoma, in the assay on TK-10 renal and in the assay on HL-60(TB) leukemia was above 100 µM throughout.
`COc1ccc2cc(-c3ccc(-c4ccc(C(=N)N)s4)s3)ccc2c1`: the GI50 in the assay with COLO 205 colon is 2040 nM; in the assay on NCI/ADR-RES ovarian, 2290 nM; in the assay with RXF 393 renal, 7.22 µM; with UO-31 renal it was 2880 nM; in the assay on EKVX NSCLC, 2140 nM; in the assay with CCRF-CEM leukemia, 1510 nM. For the same compound, the GI50 in the assay on SK-MEL-5 melanoma is 16.1 µM; in the assay with TK-10 renal it was 14.2 µM; in the assay on HL-60(TB) leukemia, 1840 nM. The TGI was found to be 4.24 µM with COLO 205 colon; 4.87 µM with NCI/ADR-RES ovarian; 23.2 µM with RXF 393 renal; 9.72 µM in the assay on UO-31 renal; 6.1 µM in the assay on EKVX NSCLC; 4.21 µM in the assay with CCRF-CEM leukemia. Further, the figures for the TGI with SK-MEL-5 melanoma, in the assay on TK-10 renal and with HL-60(TB) leukemia were 30.2 µM, 29.2 µM and 5.34 µM, respectively.
With `O=S(=O)(O)c1cc2ccc1/C=C\c1ccc(cc1S(=O)(=O)O)N=Nc1ccc(c(S(=O)(=O)O)c1)/C=C\c1ccc(cc1S(=O)(=O)O)N=N2`, the TGI in the assay on COLO 205 colon, with NCI/ADR-RES ovarian, with RXF 393 renal, in the assay on UO-31 renal, in the assay with EKVX NSCLC and in the assay with U251 CNS was above 100 µM in each case. The TGI in the assay on CCRF-CEM leukemia, in the assay on SK-MEL-5 melanoma and with HL-60(TB) leukemia was above 100 µM in each case.
For `N#C/C(=C\c1cc(Br)c(O)c(Br)c1)c1cccnc1`, the TGI with COLO 205 colon is above 100 µM; in the assay with NCI/ADR-RES ovarian, 59.1 µM; in the assay with RXF 393 renal, above 100 µM; in the assay with UO-31 renal, 58.1 µM; in the assay with EKVX NSCLC, 53.3 µM; in the assay with U251 CNS, 35.6 µM. For the same compound, the results for the TGI in the assay on CCRF-CEM leukemia, in the assay with TK-10 renal and in the assay with HL-60(TB) leukemia were above 100 µM, 87.2 µM and above 100 µM, respectively.
In the case of `O=C(NCCCN(CCCCN(CCCNC(=O)C(F)(F)F)Cc1ccccc1)Cc1ccccc1)C(F)(F)F`, the TGI with COLO 205 colon was 26.8 µM; with NCI/ADR-RES ovarian, 30.1 µM; with RXF 393 renal, 32.6 µM; with UO-31 renal it was 17.4 µM; in the assay on EKVX NSCLC, 25.3 µM; in the assay on CCRF-CEM leukemia, 51.7 µM. Further, the results for the TGI with SK-MEL-5 melanoma, in the assay with TK-10 renal and with HL-60(TB) leukemia were 14.9 µM, 53.5 µM and 36.3 µM, respectively.
Turning to `O=C(N=Nc1cc(Cl)ccc1Cl)NNc1cc(Cl)ccc1Cl`, the TGI with COLO 205 colon was determined as 41.1 µM; in the assay with NCI/ADR-RES ovarian, 61.2 µM; in the assay with RXF 393 renal, 25 µM; in the assay with UO-31 renal, 29 µM; with U251 CNS it was 31.3 µM; in the assay on CCRF-CEM leukemia, 49.8 µM. Besides, the figures for the TGI in the assay with SK-MEL-5 melanoma and in the assay with HL-60(TB) leukemia were 25.3 µM and 32.4 µM, respectively.
On to `CCN(CC)CCOc1ccc(N2C(=O)c3cc(OC)c(OC)cc3C2=O)cc1`, for which the TGI with COLO 205 colon, with NCI/ADR-RES ovarian, in the assay with RXF 393 renal, in the assay on EKVX NSCLC, with U251 CNS and in the assay on CCRF-CEM leukemia was above 100 µM in each case. Besides, the TGI with SK-MEL-5 melanoma, in the assay with TK-10 renal and with HL-60(TB) leukemia was above 100 µM in each case.
Turning to `CCOC(=N)n1c(=O)n(C2=NCCN2)c2ccccc21`, the TGI in the assay with COLO 205 colon, in the assay with NCI/ADR-RES ovarian, with RXF 393 renal, in the assay on UO-31 renal, with EKVX NSCLC and with U251 CNS was above 100 µM throughout. Also, the TGI with CCRF-CEM leukemia, in the assay with TK-10 renal and in the assay on HL-60(TB) leukemia was above 100 µM throughout.
